Experimental findings from BindingDB's records for doi:10.1111/cbdd.12575 (Universidade De Lisboa, 2015) are described below.

A word on the Ki: it is a dissociation constant, usually derived from enzyme kinetics or from competition with a known ligand. High values mean a looser hold on the target, low ones a stronger hold on the target.

In this experiment the target is T1, Nitric oxide synthase, inducible (Mus musculus, UniProt P29477).
T1 sequence (P29477 whole entry): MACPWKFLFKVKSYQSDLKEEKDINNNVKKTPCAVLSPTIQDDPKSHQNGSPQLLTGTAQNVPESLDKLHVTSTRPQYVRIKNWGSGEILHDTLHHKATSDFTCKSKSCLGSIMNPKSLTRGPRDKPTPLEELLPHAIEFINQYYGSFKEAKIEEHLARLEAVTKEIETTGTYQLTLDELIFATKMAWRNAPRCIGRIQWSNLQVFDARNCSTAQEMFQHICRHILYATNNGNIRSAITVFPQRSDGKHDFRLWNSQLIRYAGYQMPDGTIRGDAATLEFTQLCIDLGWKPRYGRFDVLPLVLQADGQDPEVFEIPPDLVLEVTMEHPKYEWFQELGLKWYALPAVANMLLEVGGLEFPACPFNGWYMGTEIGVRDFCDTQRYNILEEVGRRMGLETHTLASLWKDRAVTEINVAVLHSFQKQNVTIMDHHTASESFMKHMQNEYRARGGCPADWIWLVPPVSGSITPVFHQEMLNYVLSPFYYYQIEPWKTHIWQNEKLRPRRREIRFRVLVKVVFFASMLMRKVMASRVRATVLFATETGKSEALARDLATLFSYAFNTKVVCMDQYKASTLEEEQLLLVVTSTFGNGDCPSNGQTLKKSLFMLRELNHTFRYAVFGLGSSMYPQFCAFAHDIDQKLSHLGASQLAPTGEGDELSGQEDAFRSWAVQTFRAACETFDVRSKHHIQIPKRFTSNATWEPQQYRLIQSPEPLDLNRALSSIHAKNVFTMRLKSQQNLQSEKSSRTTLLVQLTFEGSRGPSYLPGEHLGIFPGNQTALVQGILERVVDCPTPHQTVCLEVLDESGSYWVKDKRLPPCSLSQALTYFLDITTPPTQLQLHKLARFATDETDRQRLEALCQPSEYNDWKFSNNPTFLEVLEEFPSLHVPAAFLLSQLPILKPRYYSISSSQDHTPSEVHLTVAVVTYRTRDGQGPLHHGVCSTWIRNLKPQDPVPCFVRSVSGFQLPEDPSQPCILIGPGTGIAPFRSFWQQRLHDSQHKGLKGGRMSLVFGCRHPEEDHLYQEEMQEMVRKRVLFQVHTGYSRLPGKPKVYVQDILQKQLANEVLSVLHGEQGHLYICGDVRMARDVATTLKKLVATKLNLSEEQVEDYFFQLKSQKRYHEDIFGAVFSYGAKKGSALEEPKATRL
The experiment can be described thus: iNOS Activity Assay. As for the experimental part:
The iNOS activity assay was based on the method of hemoglobin assay previously described with slight modifications. The activity of the enzyme was determined spectrophotometrically by monitoring the NO-mediated conversion of oxyhemoglobin to methemoglobin at 401 and 421 nm.
The compound `N=C(NCCCC12C[NH][Re]([CH]=O)([CH]=O)([CH]=O)([NH]1)[O]C2=O)N[N+](=O)[O-]` (stereo not given) [1,1,1-triformyl-4-(3-{[iminiumyl(nitroamino)methyl]amino}propyl)-3-oxo-2-oxa-6,7-diaza-1-rhenabicyclo[2.2.1]heptane-6,7-diium (Re4)] yielded an inhibitory constant (Ki) of 241 µM.
Compound `N=C(NCCCC(N)(CN)C(=O)O)N[N+](=O)[O-]` (stereo not given) [2-Amino-2-(aminomethyl)-5-(3-nitroguanidino)pentanoic acid (L4)] registered a Ki of 29.4 µM.
The compound `NCC(N)(CCCC(=O)NC(CCCNC(N)=N[N+](=O)[O-])C(=O)O)C(=O)O` (stereo not given) [2-Amino-2-(aminomethyl)-6-(1-carboxy-4-(2-nitroguanidino)butylamino)-6-oxohexanoic acid (L5)] came in with a Ki of 6.2 µM.
`NCC(N)(CCCCCCC(=O)NC(CCCNC(N)=N[N+](=O)[O-])C(=O)O)C(=O)O` (stereo not given) [2-Amino-2-(aminomethyl)-9-(1-carboxy-4-(2-nitroguanidino)butylamino)-9-oxononanoic acid (L6)] registered a Ki of 760 µM.
In turn, `N=C(NCCCC(NC(=O)CCCC12C[NH][Re]([CH]=O)([CH]=O)([CH]=O)([NH]1)[O]C2=O)C(=O)O)N[N+](=O)[O-]` (stereo not given) [4-{3-[(1-carboxylato-4-{[iminiumyl(nitroamino)methyl]amino}butyl)carbamoyl]propyl}-1,1,1-triformyl-3-oxo-2-oxa-6,7-diaza-1-rhenabicyclo[2.2.1]heptane-6,7-diium (Re5)] came in with a Ki of 57.2 µM.
